From patent publication USRE38257E1, “Piperdine derivatives and hypotensives containing the same” (Ajinomoto Co., Inc., priority 1988, dated 2003)
Structures can show the parent of a compound that is named as a salt.

Tested on: male spontaneously hypertensive rats
Test: Decrease in systolic blood pressure in spontaneously hypertensive rats after intravenous bolus injection, indirect (tail-cuff) method
Assay type: in vivo, rat
Details: for Decrease in systolic blood pressure (mmHg) time after administration (hour) 0.5: 0.5 hour after administration; for Decrease in systolic blood pressure (mmHg) time after administration (hour) 4: 4 hours after administration
Method: As test animals, four male spontaneously hypertensive rats (weight 400 to 440 g) that were sufficiently adapted for feeding and in which hypertension was confirmed were used.
Physiological saline aqueous solution containing 2.5% Nicolle and 2.5% ethanol of sample was intravenously administered by bolus injection at a dose of 1 ml per 1 kg of body weight. Systolic blood pressure after administration was measured by the indirect (tail-cuff) method.

[1] = dose 10 mg/kg i.v. bolus, hydrochloride, 10 mg/kg

Compound | Decrease in systolic blood pressure (mmHg) time after administration (hour) 0.5 (dose 10 mg/kg i.v. bolus) [mmHg] | Decrease in systolic blood pressure (mmHg) time after administration (hour) 4 (dose 10 mg/kg i.v. bolus) [mmHg] | also measured
Cl.Nc1cccc2c1CC(CN1CCC(=C3c4ccccc4C=Cc4ccccc43)CC1)C2 (centres unmarked) [Example 330, 4′-Amino-2-(4-(5H-Dibenzo[a,d]cyclohepten-5-ylidene)-1-piperidinyl)methylindan hydrochloride] | −93 | −25 | 
C1=Cc2ccccc2C(=C2CCN(CCc3ccccc3)CC2)c2ccccc21.Cl [Example 13, 2-(4-(5H-Dibenzo[a,d]cyclohepten-5-ylidene)-1-piperidinyl)-1-phenylethane hydrochloride] | −47 | 4 | 
Cl.N#Cc1ccc(CN2CCC(=C3c4ccccc4C=Cc4ccccc43)CC2)cc1 [Example 160, 1-(4-Cyanobenzyl)-4-(5H-dibenzo[a,d]cyclohepten-5-ylidene)piperidine hydrochloride] | −3 | −10 | 
C1=Cc2ccccc2C(=C2CCNCC2)c2ccccc21.Cl [Example 349, 4-(5H-Dibenzo[a,d]cyclohepten-5-ylidene)-1-piperidine hydrochloride] |  |  | Decrease in systolic blood pressure (mmHg) time after administration (hour) 0.5 (dose 1 mg/kg i.v. bolus): −48 mmHg; Decrease in systolic blood pressure (mmHg) time after administration (hour) 4 (dose 1 mg/kg i.v. bolus): −43 mmHg
CCCCCCN1CCC(=C2c3ccccc3C=Cc3ccccc32)CC1.Cl [Example 1, 4-(5H-Dibenzo[a,d]cyclohepten-5-ylidene)-1-hexylpiperidine hydrochloride] | −67 | 1 | 
COC(=O)C1(CCCN2CCC(=C3c4ccccc4C=Cc4ccccc43)CC2)CCCCC1.Cl [Example 314, 1-(3-(4-(5H-Dibenzo[a,d]cyclohepten-5-ylidene)-1-piperidinyl)-1-propyl)-1-methoxycarbonylcyclohexane hydrochloride] | −61 | −11 | 
C1=Cc2ccccc2C(=C2CCN(CCCCCC3CCCCC3)CC2)c2ccccc21 [Example 11, 1-Cyclohexyl-5-(4-(5H-dibenzo[a,d]cyclohepten-5-ylidene)-1-piperidinyl)pentane hydrochloride] | −166 |  | 
COC1CCC(CCCN2CCC(=C3c4ccccc4C=Cc4ccccc43)CC2)CC1.Cl (centres unmarked) [Example 324, 1-(1-(4-Methoxy)cyclohecyl)-3-(4-(5H-Dibenzo[a,d]cyclohepten-5-ylidene)-1-piperidinyl)propane hydrochloride] | −137 | −46 | 
Cl.Fc1c(F)c(F)c(CN2CCC(=C3c4ccccc4C=Cc4ccccc43)CC2)c(F)c1F [Example 120, 4-(5H-Dibenzo[a,d]cyclohepten-5-ylidene)-1-pentafluorobenzylpiperidine hydrochloride] |  |  | Decrease in systolic blood pressure (mmHg) time after administration (hour) 0.5 (dose 3 mg/kg i.v. bolus): −17 mmHg; Decrease in systolic blood pressure (mmHg) time after administration (hour) 4 (dose 3 mg/kg i.v. bolus): −12 mmHg
O=C(O)CCCN1CCC(=C2c3ccccc3C=Cc3ccccc32)CC1 [Example 200] | −10 | −24 | 
COc1ccccc1CN1CCC(=C2c3ccccc3C=Cc3ccccc32)CC1.Cl [Example 117, 4-(5H-Dibenzo[a,d]cyclohepten-5-ylidene)-1-(2-methoxybenzyl)piperidine hydrochloride] | −143 | −25 | 
1-(4-Methoxyxyxlohexyl)-4-(4-(5H-dibenzo[a,d]cyclohepten-5-ylidene)-1-piperidinyl)butane hydroxybutane hydrochloride [Example 208] | −131 | −19 | 
CCOC(=O)C(CCN1CCC(=C2c3ccccc3C=Cc3ccccc32)CC1)CC1CCCCC1.Cl (centres unmarked) [Example 259, Ethyl 2-cyclohexylmethyl-4-(4-(5H-dibenzo[a,d]cyclohepten-5-ylidene)-1-piperidinyl)butyrate hydrochloride] | −46 | −5 | 
Cl.N#CCCCN1CCC(=C2c3ccccc3C=Cc3ccccc32)CC1 [Example 165, 1-Cyano-3-[4-(5H-dibenzo[a,d]cyclohepten-5-ylidene)-1-piperidinyl)propane hydrochloride] |  |  | Decrease in systolic blood pressure (mmHg) time after administration (hour) 0.5 [1]: −22 mmHg; Decrease in systolic blood pressure (mmHg) time after administration (hour) 4 [1]: 12 mmHg
CCOC(=O)C(CCCN1CCC(=C2c3ccccc3C=Cc3ccccc32)CC1)C1CCCCC1.Cl (centres unmarked) [Example 220, Ethyl 2-cyclohexyl-5-(4-(5H-Dibenzo[a,d]cyclohepten-5-ylidene)-1-piperidinyl)valerate hydrochloride] | −148 | −54 | 
Cl.OC(CCCN1CCC(=C2c3ccccc3C=Cc3ccccc32)CC1)c1ccc(F)cc1 (centres unmarked) [Example 108, 4-(4-(5H-Dibenzo[a,d]cyclohepten-5-ylidene)-1-piperidinyl)-1-hydroxy-1-(4-fluorophenyl)butane hydrochloride] | −126 | −50 | 
CCCC(CCN1CCC(=C2c3ccccc3C=Cc3ccccc32)CC1)C(=O)c1ccc(OC)c(OC)c1.Cl (centres unmarked) [Example 277, 4-(4-(5H-dibenzo[a,d]cyclohepten-5-ylidene)-1-piperidinyl)-2-(1-propyl)-3′,4′-dimethoxybutyrophenone hydrochloride] | −27 | 0 | 
C1=Cc2ccccc2C(=C2CCN(CCCCCCc3ccccc3)CC2)c2ccccc21.Cl [Example 17, 6-(4-(5H-Dibenzo[a,d]cyclohepten-5-ylidene)-1-piperidinyl)-1-phenylhexane hydrochloride] | −84 | −16 | 
Cl.O=C(NCCN1CCCCC1=C1c2ccccc2C=Cc2ccccc21)c1cccc([N+](=O)[O-])c1 [Example 290, N-(2-(5H-Dibenzo[a,d]cyclohepten-5-ylidene)-1-piperidinyl)ethyl-3-nitrobenzamide hydrochloride] |  |  | Decrease in systolic blood pressure (mmHg) time after administration (hour) 0.5 (dose 3 mg/kg i.v. bolus): −15 mmHg; Decrease in systolic blood pressure (mmHg) time after administration (hour) 4 (dose 3 mg/kg i.v. bolus): 15 mmHg
COc1ccc2c(c1OC)CCC(CCN1CCC(=C3c4ccccc4C=Cc4ccccc43)CC1)C2.Cl (centres unmarked) [Example 318, 2-(3-(4-(5H-Dibenzo[a,d]cyclohepten-5-ylidene)-1-piperidinyl)-1-ethyl)-5,6-dimethoxy-1,2,34-tetrahydronaphthalene hydrochloride] | −83 | −57 | 
COc1cc(C=CCN2CCC(=C3c4ccccc4C=Cc4ccccc43)CC2)cc(OC)c1OC.Cl [Example 320, 4-(5H-Dibenzo[a,d]cyclohepten-5-ylidene)-1-(3,4,5-trimethoxycinnamyl)piperdine hydrochloride] | −147 | −113 | 
CCCCCCCCCCCCCCN1CCC(=C2c3ccccc3C=Cc3ccccc32)CC1.Cl [Example 5, 4-(5H-Dibenzo[a,d]cyclohepten-5-ylidene)-1-tetradecylpiperidine hydrochloride] | −56 | −20 | 
Cl.Fc1ccccc1CN1CCC(=C2c3ccccc3C=Cc3ccccc32)CC1 [Example 111, 4-(5H-Dibenzo[a,d]cyclohepten-5-ylidene)-1-(2-fluorobenzyl)piperidine hydrochloride] | −98 | −13 | 
C1=Cc2ccccc2C(=C2CCN(CCCCC3CCCCC3)CC2)c2ccccc21.Cl [Example 283, 4-(4-(4-(5H-Dibenzo[a,d]cyclohepten-5-ylidene)-1-piperidinyl)-1-butyl)cyclohexane hydrochloride] |  |  | Decrease in systolic blood pressure (mmHg) time after administration (hour) 0.5 [1]: −112 mmHg; Decrease in systolic blood pressure (mmHg) time after administration (hour) 4 [1]: 4 mmHg
COc1ccc(CCC(=O)N2CCC(=C3c4ccccc4C=Cc4ccccc43)CC2)cc1OC [Example 202, 4-(5H-Dibenzo[a,d]cyclohepten-5-ylidene)-1-(3-(3′,4′-dimethoxyphenyl)propanoyl)piperidine] | −54 | −16 | 
COc1cccc(C=CCN2CCC(=C3c4ccccc4C=Cc4ccccc43)CC2)c1OC.Cl [Example 193, 4-(5H-Dibenzo[a,d]cyclohepten-5-ylidene)-1-(2-dimethoxycinnamyl)piperidine hydrochloride] | −124 | −59 | 
Cl.O=C(CCCN1CCC(=C2c3ccccc3C=Cc3ccccc32)CC1)N1CCOCC1 [Example 245, 1-(4-(4-(5H-Dibenzo[a,d]cyclohepten-5-ylidene)-1-piperidinyl)butanoyl)morpholine hydrochloride] | −34 | −10 | 
